Source: patent US20260125382A1, “COMPOUNDS FOR INHIBITING OR DEGRADING CDK2 AND/OR CDK9 AND MEDICINAL USE THEREOF” (KOREA RESEARCH INSTITUTE OF CHEMICAL TECHNOLOGY, priority 2022, published 2026)

How the values were obtained:
CDK2 = target: T1, CDK2 (Homo sapiens, UniProt P24941); assay: CDK protein degradation activity (Western blotting), CDK2; assay type: cell-based; conditions: MDA-MB-231 cells, 16 hours, Western blot
T1 construct: endogenous in cells; host or cells: MDA-MB-231
In short: (§1)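 MDA-MB-231; cmpd 100 nM / 1 μM / 10 μM final vs DMSO, 16 h. Triton X-100 lysates (pH 7.5, phosphatase/protease inhibitors) → SDS-PAGE → Western blot, anti-CDK2, anti-CDK9, tubulin loading control; densitometry.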

CDK9 = target: T2, CDK9 (Homo sapiens, UniProt P50750); assay: CDK protein degradation activity (Western blotting), CDK9; assay type: cell-based; conditions: MDA-MB-231 cells, 16 hours, Western blot
T2 construct: endogenous in cells; host or cells: MDA-MB-231
In short: as §1

T2 sequence (P50750 whole entry): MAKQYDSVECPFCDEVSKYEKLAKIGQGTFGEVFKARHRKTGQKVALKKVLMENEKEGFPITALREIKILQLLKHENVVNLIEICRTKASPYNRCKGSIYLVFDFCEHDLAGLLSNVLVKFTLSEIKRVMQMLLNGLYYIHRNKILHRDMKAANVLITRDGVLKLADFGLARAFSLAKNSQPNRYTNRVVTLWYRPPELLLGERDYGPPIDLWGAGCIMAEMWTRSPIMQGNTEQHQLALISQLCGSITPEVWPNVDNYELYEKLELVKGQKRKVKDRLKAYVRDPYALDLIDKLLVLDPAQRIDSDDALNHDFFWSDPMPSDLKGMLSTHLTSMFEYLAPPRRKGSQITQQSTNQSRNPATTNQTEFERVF

SMILES	Enzyme degradation CDK2 (% remaining) @ 0.1 μM (CDK2)	Enzyme degradation CDK2 (% remaining) @ 1 μM (CDK2)	Enzyme degradation CDK2 (% remaining) @ 10 μM (CDK2)	Enzyme degradation CDK9 (% remaining) @ 0.1 μM (CDK9)	Enzyme degradation CDK9 (% remaining) @ 1 μM (CDK9)	Enzyme degradation CDK9 (% remaining) @ 10 μM (CDK9)
Cc1cccc(C(=O)NC2CC(n3cnc4c(Nc5ccc(N6CCN(CC7CCN(c8ccc9nnn([C@H]%10CCC(=O)NC%10=O)c(=O)c9c8)CC7)CC6)cc5)ncnc43)C2)n1 (stereo partly drawn) [Compound 378, N-((1s,3s)-3-(6-((4-(4-((1-(3-(2,6-dioxopiperidin-3-yl)-4-oxo-3,4-dihydrobenzo[d][1,2,3]triazin-6-yl)piperidin-4-yl)methyl)piperazin-1-yl)phenyl)amino)-9H-purin-9-yl)cyclobutyl)-6-methylpicolinamide]	10/10/10%	10/10/10%	10/10/10%	0/0/0%	0/0/0%	0/0/0%
Cc1cccc(C(=O)NC2CC(n3cnc4c(Nc5ccc(N6CCN(CC7CCN(C(=O)C8CCN(c9ccc%10c(c9)C(=O)N([C@H]9CCC(=O)NC9=O)C%10=O)CC8)CC7)CC6)cc5)ncnc43)C2)n1 (stereo partly drawn) [Compound 379, N-((1s,3s)-3-(6-((4-(4-((1-(1-(2-(2,6-dioxopiperidin-3-yl)-1,3-dioxoisoindolin-5-yl)piperidin-4-carbonyl)piperidin-4-yl)methyl)piperazin-1-yl)phenyl)amino)-9H-purin-9-yl)cyclobutyl)-6-methylpicolinamide]	40/40/40%	40/40/40%	40/40/40%	0/0/0%	0/0/0%	0/0/0%
Cc1cccc(C(=O)NC2CC(n3cnc4c(Nc5ccc(N6CCN(CCC7CCN(c8ccc9c(c8)C(=O)N([C@H]8CCC(=O)NC8=O)C9=O)CC7)CC6)cc5)ncnc43)C2)n1 (stereo partly drawn) [Compound 380, N-((1s,3s)-3-(6-((4-(4-(2-(1-(2-(2,6-dioxopiperidin-3-yl)-1,3-dioxoisoindolin-5-yl)piperidin-4-yl)ethyl)piperazin-1-yl)phenyl)amino)-9H-purin-9-yl)cyclobutyl)-6-methylpicolinamide]	40%	40%	30%	0/0/0%	0/0/0%	0/0/0%
Cc1cccc(C(=O)NC2CC(n3cnc4c(Nc5ccc(N6CCN(CCC7CCN(c8cc9c(cc8F)C(=O)N([C@H]8CCC(=O)NC8=O)C9=O)CC7)CC6)cc5)ncnc43)C2)n1 (stereo partly drawn) [Compound 381, N-((1s,3s)-3-(6-((4-(4-(2-(1-(2-(2,6-dioxopiperidin-3-yl)-6-fluoro-1,3-dioxoisoindolin-5-yl)piperidin-4-yl)ethyl)piperazin-1-yl)phenyl)amino)-9H-purin-9-yl)cyclobutyl)-6-methylpicolinamide]	30%	20%	20%	0/0/0%	0/0/0%	0/0/0%
Cc1cccc(C(=O)N[C@H]2C[C@@H](n3cnc4c(Nc5ccc(N6CCN(CCC7CCN(c8ccc9nnn([C@H]%10CCC(=O)NC%10=O)c(=O)c9c8)CC7)CC6)cc5)ncnc43)C2)n1 [Compound 382, N-((1s,3s)-3-(6-((4-(4-(2-(1-(3-(2,6-dioxopiperidin-3-yl)-4-oxo-3,4-dihydrobenzo[d][1,2,3]triazin-6-yl)piperidin-4-yl)ethyl)piperazin-1-yl)phenyl)amino)-9H-purin-9-yl)cyclobutyl)-6-methylpicolinamide]	30%	30%	50%	0/0/0%	0/0/0%	0/0/0%

Now from value to compound:

Enzyme degradation CDK2 (% remaining) @ 0.1 μM (CDK2)	Enzyme degradation CDK2 (% remaining) @ 1 μM (CDK2)	Enzyme degradation CDK2 (% remaining) @ 10 μM (CDK2)	Enzyme degradation CDK9 (% remaining) @ 0.1 μM (CDK9)	Enzyme degradation CDK9 (% remaining) @ 1 μM (CDK9)	Enzyme degradation CDK9 (% remaining) @ 10 μM (CDK9)	SMILES
40/40/40%	40/40/40%	40/40/40%	0/0/0%	0/0/0%	0/0/0%	O=C1CC[C@H](N2C(=O)c3ccc(N4CC(C(=O)N5CCC6(CC5)CC(N5CCN(c7ccc(Nc8ncnc9c8ncn9C8CC(NC(=O)c9c(Cl)cccc9Cl)C8)cc7)CC5)C6)C4)cc3C2=O)C(=O)N1 (stereo partly drawn) [Compound 383, 2,6-dichloro-N-((1s,3s)-3-(6-((4-(4-(7-(1-(2-(2,6-dioxopiperidin-3-yl)-1,3-dioxoisoindolin-5-yl)azetidin-3-carbonyl)-7-azaspiro[3.5]nonan-2-yl)piperazin-1-yl)phenyl)amino)-9H-purin-9-yl)cyclobutyl)benzamide]
20/20/20%	20/20/20%	20/20/20%	0/0/0%	0/0/0%	0/0/0%	Cc1cccc(C(=O)NC2CC(n3cnc4c(Nc5ccc(N6CCN(C7CC8(CCN(c9ccc%10c(c9)C(=O)N([C@H]9CCC(=O)NC9=O)C%10=O)CC8)C7)CC6)cc5)ncnc43)C2)n1 (stereo partly drawn) [Compound 384, N-((1s,3s)-3-(6-((4-(4-(7-(2-(2,6-dioxopiperidin-3-yl)-1,3-dioxoisoindolin-5-yl)-7-azaspiro[3.5]nonan-2-yl)piperazin-1-yl)phenyl)amino)-9H-purin-9-yl)cyclobutyl)-6-methylpicolinamide]
40%	30%	30%	0/0/0%	0/0/0%	0/0/0%	Cc1cccc(C(=O)N[C@H]2C[C@@H](n3cnc4c(Nc5ccc(N6CCN(C7CC8(CCN(c9cc%10c(cc9F)C(=O)N([C@H]9CCC(=O)NC9=O)C%10=O)CC8)C7)CC6)cc5)ncnc43)C2)n1 [Compound 385, N-((1s,3s)-3-(6-((4-(4-(7-(2-(2,6-dioxopiperidin-3-yl)-6-fluoro-1,3-dioxoisoindolin-5-yl)-7-azaspiro[3.5]nonan-2-yl)piperazin-1-yl)phenyl)amino)-9H-purin-9-yl)cyclobutyl)-6-methylpicolinamide]
20%	10%	10%	0/0/0%	0/0/0%	0/0/0%	Cc1cccc(C(=O)N[C@H]2C[C@@H](n3cnc4c(Nc5ccc(N6CCN(C7CC8(CCN(c9ccc%10nnn([C@H]%11CCC(=O)NC%11=O)c(=O)c%10c9)CC8)C7)CC6)cc5)ncnc43)C2)n1 [Compound 386, N-((1s,3s)-3-(6-((4-(4-(7-(3-(2,6-dioxopiperidin-3-yl)-4-oxo-3,4-dihydrobenzo[d][1,2,3]triazin-6-yl)-7-azaspiro[3.5]nonan-2-yl)piperazin-1-yl)phenyl)amino)-9H-purin-9-yl)cyclobutyl)-6-methylpicolinamide]
